# Data taken from ChEMBL document CHEMBL6092166, “Design, synthesis and enzymatic inhibition evaluation of novel 4-hydroxy Pd-C-Ⅲ derivatives as α-glucosidase and PTP1B dual-target inhibitors” (Eur J Med Chem, 2024).
# Activity calls are given as the source filed them. The calls are words filed in the database; no cut-off is given here.
# Experiments:
# [1] = target: T1, Alpha glucosidase (Homo sapiens, UniProt O43451+P10253+P14410+Q2M2H8); assay: Inhibition of alpha-glucosidase (unknown origin) using p-NPG as substrate incubated for 15 mins by spectrophotometric analysis; assay type: protein assay
# [2] = target: T2, Tyrosine-protein phosphatase non-receptor type 1 (Homo sapiens, UniProt P18031); assay: Inhibition of PTP1B (unknown origin) using pNPP as substrate preincubated for 10 mins followed by substrate addition for 20 mins by absorbance based analysis
# T2 sequence (P18031 whole entry): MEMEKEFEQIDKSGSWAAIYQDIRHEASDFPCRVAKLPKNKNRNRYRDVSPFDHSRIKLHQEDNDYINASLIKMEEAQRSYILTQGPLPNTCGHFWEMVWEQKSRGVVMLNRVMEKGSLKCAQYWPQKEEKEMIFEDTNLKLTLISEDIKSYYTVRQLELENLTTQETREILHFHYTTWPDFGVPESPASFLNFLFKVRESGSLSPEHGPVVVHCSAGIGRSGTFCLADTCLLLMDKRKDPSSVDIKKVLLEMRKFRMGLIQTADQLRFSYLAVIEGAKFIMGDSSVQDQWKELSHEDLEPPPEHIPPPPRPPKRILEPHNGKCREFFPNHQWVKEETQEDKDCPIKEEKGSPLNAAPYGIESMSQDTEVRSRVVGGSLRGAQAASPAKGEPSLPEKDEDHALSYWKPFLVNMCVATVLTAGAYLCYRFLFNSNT
# [3] = target: T1, Alpha glucosidase; assay: Inhibition of alpha-glucosidase (unknown origin) using p-NPG as substrate preincubated for 15 mins followed by substrate addition for 30 mins by absorbance based analysis; assay type: protein assay
# [4] = test system: Mus musculus; assay: Reduction in blood glucose concentration in male Kunming mouse assessed as decrease in glucose AUC at 20 mg/kg preadministered for 40 mins and measured after 120 mins by sucrose loading test relative to control; assay type: functional, organism-based
# [5] = Inhibition of alpha-amylase (unknown origin); parameters: species or system Homo sapiens
# [6] = test system: Mus musculus; assay: Reduction in blood glucose concentration in male Kunming mouse at 20 mg/kg preadministered for 40 mins and measured after 120 mins by sucrose loading test; assay type: functional, organism-based
# [7] = target: T1, Alpha glucosidase; assay: Inhibition of alpha-glucosidase (unknown origin) activity assessed as disruption of secondary structure by measuring beta-turn content at 10 uM by Circular dichroism spectra analysis (reference value: 15.8%); assay type: protein assay; parameters: scale not given: the % may be the effect or the level left
# [8] = target: T1, Alpha glucosidase; assay: Inhibition of alpha-glucosidase (unknown origin) activity assessed as disruption of secondary structure by measuring random coil content at 50 uM by Circular dichroism spectra analysis (reference value: 27.1%); assay type: protein assay; parameters: scale not given: the % may be the effect or the level left
# [9] = target: T3, Tyrosine-protein phosphatase non-receptor type 1 (Homo sapiens) (UniProt P18031); assay: Inhibition of PTP1B (unknown origin) in human HepG2 cells assessed as downregulation of PTP1B protein level at 50 uM at 40 to 60 degreeC incubated for 6 hrs by Western blot based Cellular thermal shift assay; assay type: cell-based
# T3 sequence (whole entry): T2 sequence (P18031 whole entry)
# [10] = target: T1, Alpha glucosidase; assay: Binding affinity to alpha-glucosidase (unknown origin) by fluorescence based analysis; assay type: protein assay
# [11] = target: T1, Alpha glucosidase; assay: Binding affinity to alpha-glucosidase (unknown origin) assessed as fluorescence intensity at 12.5 uM by fluorescence based analysis (reference value: 313.09); assay type: protein assay
# [12] = target: T2, Tyrosine-protein phosphatase non-receptor type 1; assay: Inhibition of PTP1B (unknown origin)
# [13] = target: T1, Alpha glucosidase; assay: Inhibition of alpha-glucosidase (unknown origin) activity assessed as disruption of secondary structure by measuring beta-sheet content at 10 uM by Circular dichroism spectra analysis (reference value: 13.9%); assay type: protein assay; parameters: scale not given: the % may be the effect or the level left
# [14] = target: T1, Alpha glucosidase; assay: Inhibition of alpha-glucosidase (unknown origin) activity assessed as disruption of secondary structure by measuring random coil content at 10 uM by Circular dichroism spectra analysis (reference value: 27.1%); assay type: protein assay; parameters: scale not given: the % may be the effect or the level left
# [15] = target: T1, Alpha glucosidase; assay: Inhibition of alpha-glucosidase (unknown origin) activity assessed as disruption of secondary structure by measuring alpha-helix content at 50 uM by Circular dichroism spectra analysis (reference value: 40.0%); assay type: protein assay; parameters: scale not given: the % may be the effect or the level left
# [16] = target: T1, Alpha glucosidase; assay: Mixed inhibition of alpha-glucosidase (unknown origin) using p-NPG as substrate assessed as increased in Km and decreased in Vmax at 0 to 20 uM incubated for 15 mins by Lineweaver-Burk double reciprocal plot analysis; assay type: protein assay; conditions: dose 0-20 µM
# [17] = target: T1, Alpha glucosidase; assay: Binding affinity to alpha-glucosidase (unknown origin) using p-NPG as substrate assessed as free inhibition constant at 0 to 20 uM incubated for 15 mins by Lineweaver-Burk double reciprocal plot analysis; assay type: protein assay
# [18] = target: T1, Alpha glucosidase; assay: Inhibition of alpha-glucosidase (unknown origin) activity assessed as disruption of secondary structure by measuring alpha-helix content at 40 uM by Circular dichroism spectra analysis (reference value: 40.0%); assay type: protein assay; parameters: scale not given: the % may be the effect or the level left
# [19] = target: T1, Alpha glucosidase; assay: Binding affinity to alpha-glucosidase (unknown origin) assessed as collision quenching by fluorescence based analysis; assay type: protein assay
# [20] = target: T1, Alpha glucosidase; assay: Inhibition of alpha-glucosidase (unknown origin) activity assessed as disruption of secondary structure by measuring beta-turn content at 40 uM by Circular dichroism spectra analysis (reference value: 15.8%); assay type: protein assay; parameters: scale not given: the % may be the effect or the level left
# [21] = target: T1, Alpha glucosidase; assay: Inhibition of alpha-glucosidase (unknown origin) activity assessed as disruption of secondary structure by measuring random coil content at 30 uM by Circular dichroism spectra analysis (reference value: 27.1%); assay type: protein assay; parameters: scale not given: the % may be the effect or the level left
# [22] = target: T1, Alpha glucosidase; assay: Inhibition of alpha-glucosidase (unknown origin) activity assessed as disruption of secondary structure by measuring beta-sheet content at 50 uM by Circular dichroism spectra analysis (reference value: 13.9%); assay type: protein assay; parameters: scale not given: the % may be the effect or the level left
# [23] = Cytotoxicity against human HEK293 cells assessed as cell survival at 250 uM incubated for 24 hrs by MTT assay; assay type: toxicity, cell-based; conditions: read-out: Survival
# [24] = target: T1, Alpha glucosidase; assay: Binding affinity to alpha-glucosidase (unknown origin) using p-NPG as substrate assessed as enzyme-substrate complex inhibition constant at 0 to 20 uM incubated for 15 mins by Lineweaver-Burk double reciprocal plot analysis; assay type: protein assay; conditions: dose 0-20 µM
# [25] = target: T1, Alpha glucosidase; assay: Inhibition of alpha-glucosidase (unknown origin) activity assessed as disruption of secondary structure by measuring random coil content at 40 uM by Circular dichroism spectra analysis (reference value: 27.1%); assay type: protein assay; parameters: scale not given: the % may be the effect or the level left
# [26] = target: T1, Alpha glucosidase; assay: Binding affinity to alpha-glucosidase (unknown origin) assessed as association constant by fluorescence based analysis; assay type: protein assay
# [27] = target: T1, Alpha glucosidase; assay: Mixed inhibition of alpha-glucosidase (unknown origin) using p-NPG as substrate at 0 to 20 uM incubated for 15 mins by Lineweaver-Burk double reciprocal plot analysis; assay type: protein assay; conditions: dose 0-20 µM
# [28] = target: T1, Alpha glucosidase; assay: Inhibition of alpha-glucosidase (unknown origin) activity assessed as disruption of secondary structure by measuring beta-sheet content at 40 uM by Circular dichroism spectra analysis (reference value: 13.9%); assay type: protein assay; parameters: scale not given: the % may be the effect or the level left
# [29] = target: T1, Alpha glucosidase; assay: Inhibition of alpha-glucosidase (unknown origin) activity assessed as disruption of secondary structure by measuring beta-sheet content at 30 uM by Circular dichroism spectra analysis (reference value: 13.9%); assay type: protein assay; parameters: scale not given: the % may be the effect or the level left
# [30] = target: T1, Alpha glucosidase; assay: Binding affinity to alpha-glucosidase (unknown origin) assessed as quenching constant by fluorescence based analysis; assay type: protein assay
# [31] = target: T1, Alpha glucosidase; assay: Inhibition of alpha-glucosidase (unknown origin) activity assessed as disruption of secondary structure by measuring beta-turn content at 50 uM by Circular dichroism spectra analysis (reference value: 15.8%); assay type: protein assay; parameters: scale not given: the % may be the effect or the level left
# [32] = target: T1, Alpha glucosidase; assay: Binding affinity to alpha-glucosidase (unknown origin) assessed as decreased fluorescence intensity by measuring peak 1 (lamda ex/lamda em: 315/375 nm) and peak 2 ((lamda ex/lamda em: 225/395 nm) by 3D fluorescence spectra analysis; assay type: protein assay
# [33] = target: T1, Alpha glucosidase; assay: Inhibition of alpha-glucosidase (unknown origin) activity assessed as disruption of secondary structure by measuring alpha-helix content at 30 uM by Circular dichroism spectra analysis (reference value: 40.0%); assay type: protein assay; parameters: scale not given: the % may be the effect or the level left
# [34] = target: T1, Alpha glucosidase; assay: Inhibition of alpha-glucosidase (unknown origin) activity assessed as disruption of secondary structure by measuring alpha-helix content at 10 uM by Circular dichroism spectra analysis (reference value: 40.0%); assay type: protein assay; parameters: scale not given: the % may be the effect or the level left
# [35] = target: T1, Alpha glucosidase; assay: Inhibition of alpha-glucosidase (unknown origin) activity assessed as disruption of secondary structure by measuring beta-turn content at 30 uM by Circular dichroism spectra analysis (reference value: 15.8%); assay type: protein assay; parameters: scale not given: the % may be the effect or the level left
# [36] = target: T1, Alpha glucosidase; assay: Binding affinity to alpha-glucosidase (unknown origin) assessed as Stem-Volmer quenching constant by fluorescence based analysis; assay type: protein assay
smiles,measurement,setting,value
CC1(C)Oc2cc3oc(=O)ccc3cc2C[C@@H]1O [DECURSINOL],IC50,[1],65.3 µM
same,IC50,[2],58.9 µM
O=C(OCCCCOc1ccc2ccc(=O)oc2c1)c1ccc(Cl)cc1Cl,IC50,[3],> 300 µM
C[C@H]1O[C@H](O[C@H]2[C@H](O)[C@@H](O)[C@@H](O[C@H]3[C@H](O)[C@@H](O)C(O)O[C@@H]3CO)O[C@@H]2CO)[C@H](O)[C@@H](O)[C@@H]1N[C@H]1C=C(CO)[C@@H](O)[C@H](O)[C@H]1O (stereo partly drawn) [ACARBOSE],Activity,[4],Active
same,IC50,[5],17.8 µM
same,Activity,[6],Active
O=C(/C=C/c1ccccc1)OCCOc1ccc2ccc(=O)oc2c1,IC50,[3],235.6 µM
CO[C@@H]1c2cc3ccc(=O)oc3cc2OC(C)(C)[C@H]1OC(=O)C=C(C)C,IC50,[1],89.2 µM
same,IC50,[2],6.6 µM
O=C(/C=C/c1ccccc1Cl)OCCOc1ccc2ccc(=O)oc2c1,IC50,[3],258.7 µM
Cc1c(C)c2c(C)cc(OCCOC(=O)/C=C/c3ccc(Cl)cc3Cl)cc2oc1=O,Activity,[7],16.3%
same,Activity,[8],36.3%
same,inhibition,[9],Active
same,Activity,[10],Active; Wavelength Of Maximum Emission Peak Red Shifted From 335 Nm To 340 Nm
same,Activity,[4],Active
same,Flu intensity,[11],144
same,IC50,[12],47 µM
same,IC50,[5],30.6 µM
same,Activity,[13],15.3%
same,Activity,[14],29.1%
same,Activity,[15],27.6%
same,inhibition,[16],Active
same,Ki,[17],0.25 µM
same,IC50,[3],66.3 µM
same,Activity,[18],28.3%
same,K,[19],2 10^10L/mol/s
same,Activity,[20],17.8%
same,Activity,[21],32.7%
same,Activity,[22],20.9%
same,"viability at 24 h, 250 µM",[23],81.8%
same,Kis,[24],0.17 µM
same,Activity,[25],35.4%
same,ka,[26],2.09 10^3L/mol
same,inhibition,[27],Active; Intersection In Second Quadrant Of Double Reciprocal Graph Observed; Compound Binds To Free Enzyme And Enzyme-Substrate Complex
same,Activity,[28],20.2%
same,Activity,[29],17.9%
same,Kq,[30],9.7 10^12L/mol/s
same,Activity,[31],18%
same,inhibition,[32],Active; Peak 1 Reflected The Absorption Peak Of Tyrosine Residues And Tryptophan Residues And Peak 2 Was Fluorescence Feature Of Polypeptide Backbone Structure
same,Activity,[33],32.2%
same,Activity,[34],37.1%
same,Activity,[6],Active
same,Activity,[35],17.1%
same,KSV,[36],9.7 10^4L/mol
COc1ccc(/C=C/C(=O)OCCOc2ccc3ccc(=O)oc3c2)cc1OC,IC50,[3],> 300 µM
O=C(/C=C/c1ccc(Cl)cc1Cl)OCCCOc1ccc2ccc(=O)oc2c1,IC50,[3],> 300 µM
O=C(/C=C/c1ccc(Cl)cc1)OCCOc1ccc2ccc(=O)oc2c1,IC50,[3],283.2 µM
Cc1cc(=O)oc2c(C)c(OCCOC(=O)/C=C/c3ccc(Cl)cc3Cl)ccc12,IC50,[3],> 300 µM
O=C(/C=C/c1ccc2ccccc2c1)OCCOc1ccc2ccc(=O)oc2c1,IC50,[3],> 300 µM
COc1cc(/C=C/C(=O)OCCOc2ccc3ccc(=O)oc3c2)ccc1O,IC50,[3],> 300 µM
O=C(/C=C/c1ccc(F)cc1)OCCOc1ccc2ccc(=O)oc2c1,IC50,[3],> 300 µM
O=C(/C=C/c1cccc(F)c1)OCCOc1ccc2ccc(=O)oc2c1,IC50,[3],> 300 µM
O=C(/C=C/c1ccc(Br)cc1)OCCOc1ccc2ccc(=O)oc2c1,IC50,[3],263.2 µM
